Key:
CCRF-CEM = assay: Antiproliferative activity against human CCRF-CEM cells assessed as cell growth inhibition incubated for 72 hrs by MTT assay; assay type: functional, cell-based
[1] = Antiproliferative activity against human L02 cells assessed as cell growth inhibition incubated for 72 hrs by MTT assay; assay type: toxicity, cell-based
U-118-MG = assay: Antiproliferative activity against human U-118-MG cells assessed as cell growth inhibition incubated for 72 hrs by MTT assay; assay type: functional, cell-based
HCT-116 = assay: Antiproliferative activity against human HCT-116 cells assessed as cell growth inhibition incubated for 72 hrs by MTT assay; assay type: functional, cell-based; settings: HCT-116, 72 h
SH-SY5Y = assay: Antiproliferative activity against human SH-SY5Y cells assessed as cell growth inhibition incubated for 72 hrs by MTT assay; assay type: functional, cell-based
A549 = assay: Antiproliferative activity against human A549 cells assessed as cell growth inhibition incubated for 72 hrs by MTT assay; assay type: functional, cell-based; settings: A549, 72 h
K562 = assay: Antiproliferative activity against human K562 cells assessed as cell growth inhibition incubated for 72 hrs by MTT assay; assay type: functional, cell-based; settings: K562, 72 h
HL-60 [2] = assay: Antiproliferative activity against human HL-60 cells assessed as cell growth inhibition incubated for 72 hrs by MTT assay; assay type: functional, cell-based; settings: HL-60, 72 h
HL-60 [3] = assay: Antitumor activity against human HL-60 cells assessed as cell growth inhibition; assay type: functional, cell-based
[4] = Antitumor activity against PBMC cells (unknown origin) assessed as cell growth inhibition; assay type: functional, cell-based; settings: Homo sapiens
[5] = Selectivity index, ratio of IC50 for human K562 cells to IC50 for human CCRF-CEM cells
[6] = Selectivity index, ratio of IC50 for human HL-60 cells to IC50 for human CCRF-CEM cells
[7] = Selectivity index, ratio of IC50 for human L02 cells to IC50 for human CCRF-CEM cells; assay type: toxicity; settings: L02 cells and CCRF-CEM cells, read-out: Selectivity Index
[8] = Antitumor activity against human L02 cells assessed as cell growth inhibition; assay type: toxicity, cell-based
Bel-7402 = assay: Antitumor activity against human Bel-7402 cells assessed as cell growth inhibition; assay type: functional, cell-based

SMILES	IC50 (CCRF-CEM)	IC50 at 72 h [1]	IC50 (U-118-MG)	IC50 (HCT-116)	IC50 (SH-SY5Y)	IC50 (A549)	IC50 (K562)	IC50 (HL-60 [2])	IC50 (HL-60 [3])	IC50 [4]	Selectivity Index [5]	Selectivity Index [6]	selectivity ratio [7]	IC50 [8]	IC50 (Bel-7402)
C[C@@H]1CC[C@@H]2[C@]34OO[C@](C)(CC[C@@H]13)O[C@H]4O[C@]2(C)COC(=O)CCc1ccc(N(CCCl)CCCl)cc1	8.81 µM	> 40 µM	> 40 µM	20.8 µM	> 40 µM	> 40 µM	–	–	–	–	–	–	–	–	–
COc1cccc2c1C(=O)c1c(O)c3c(c(O)c1C2=O)C[C@@](O)(C(=O)CO)C[C@@H]3O[C@H]1C[C@H](N)[C@H](O)[C@H](C)O1 [DOXORUBICIN]	–	–	–	1.88 µM	1.54 µM	–	–	–	–	–	–	–	–	–	–
C[C@@H]1CC[C@@H]2[C@]34OO[C@](C)(CC[C@@H]13)O[C@H]4O[C@]2(C)COC(=O)Cc1ccc(N(CCCl)CCCl)cc1	3.84 µM	> 40 µM	> 40 µM	40 µM	> 40 µM	> 40 µM	> 100 µM	20.9 µM	–	–	–	–	–	–	–
COC(=O)[C@H](Cc1ccc(N(CCCl)CCCl)cc1)NC(=O)CCC(=O)OCCCOCCCn1c2c(c3ccccc31)CCN1C(=O)c3ccccc3N(C)[C@H]21	–	–	–	–	–	–	–	–	0.5 µM	> 200 µM	–	–	–	–	–
C[C@@H]1CC[C@@H]2[C@]34OO[C@](C)(CC[C@@H]13)O[C@H]4O[C@]2(C)COC(=O)c1ccccc1N(CCCl)CCCl	1.48 µM	7.68 µM	> 40 µM	11.8 µM	22.1 µM	5.79 µM	9.61 µM	0.789 µM	–	–	0.8	9.73	5.19	–	–
O=C(O)CCCc1ccc(N(CCCl)CCCl)cc1 [CHLORAMBUCIL]	12 µM	–	> 40 µM	> 40 µM	> 40 µM	> 40 µM	> 100 µM	34.4 µM	–	–	1.05	24.1	8.79	–	–
Cc1cc(C(=O)OC[C@@]2(C)O[C@@H]3O[C@@]4(C)CC[C@H]5[C@H](C)CC[C@@H]2[C@@]35OO4)ccc1N(CCCl)CCCl	0.55 µM	1.87 µM	> 40 µM	4.22 µM	> 40 µM	7.03 µM	0.589 µM	2.97 µM	–	–	3.18	0.63	3.37	–	–
C[C@H]1[C@@H](O)O[C@@H]2O[C@@]3(C)CC[C@H]4[C@H](C)CC[C@@H]1[C@@]24OO3 [ARTENIMOL]	5.13 µM	24.3 µM	–	> 40 µM	> 40 µM	> 40 µM	21.8 µM	61.2 µM	–	–	–	–	–	–	–
Cc1cc(C(=O)OC2O[C@@H]3O[C@@]4(C)CC[C@H]5[C@H](C)CC[C@@H]([C@H]2C)[C@@]35OO4)ccc1N(CCCl)CCCl (stereo not given in full)	1.87 µM	5 µM	> 40 µM	6.72 µM	> 40 µM	7.02 µM	–	–	–	–	–	–	–	–	–
C=C1C(=O)[C@@]23C(=O)O[C@H]4CCC(C)(C)[C@H]5[C@H](O)OC[C@@]45[C@@H]2CC[C@@H]1[C@H]3OC(=O)c1ccc(N(CCCl)CCCl)cc1	–	–	–	–	–	–	–	–	–	–	–	–	–	> 100 µM	–
C[C@@H]1CC[C@@H]2[C@]34OO[C@](C)(CC[C@@H]13)O[C@H]4O[C@]2(C)COC(=O)c1ccc(N(CCCl)CCCl)c(F)c1	> 40 µM	> 40 µM	> 40 µM	> 40 µM	> 40 µM	> 40 µM	–	–	–	–	–	–	–	–	–
C[C@@H]1CC[C@H]2[C@@H](C)C(OC(=O)c3cccc(N(CCCl)CCCl)c3)O[C@@H]3O[C@@]4(C)CC[C@@H]1[C@]32OO4 (stereo not given in full)	> 40 µM	> 40 µM	> 40 µM	–	> 40 µM	3.24 µM	–	–	–	–	–	–	–	–	–
C[C@@H]1CC[C@H]2[C@@H](C)C(OC(=O)CCc3ccc(N(CCCl)CCCl)cc3)O[C@@H]3O[C@@]4(C)CC[C@@H]1[C@]32OO4 (stereo not given in full)	4.13 µM	> 40 µM	> 40 µM	8.08 µM	> 40 µM	> 40 µM	50.2 µM	30.4 µM	–	–	–	–	–	–	–
C[C@@H]1CC[C@@H]2[C@]34OO[C@](C)(CC[C@@H]13)O[C@H]4O[C@]2(C)COC(=O)c1cccc(N(CCCl)CCCl)c1	> 40 µM	32 µM	22.1 µM	8.42 µM	> 40 µM	> 40 µM	–	–	–	–	–	–	–	–	–
C[C@@H]1CC[C@H]2[C@@H](C)C(OC(=O)c3ccccc3N(CCCl)CCCl)O[C@@H]3O[C@@]4(C)CC[C@@H]1[C@]32OO4 (stereo not given in full)	3.41 µM	8.24 µM	> 40 µM	25.6 µM	> 40 µM	8.22 µM	–	–	–	–	–	–	–	–	–
C[C@@H]1CC[C@H]2[C@@H](C)C(OC(=O)CCCc3ccc(N(CCCl)CCCl)cc3)O[C@@H]3O[C@@]4(C)CC[C@@H]1[C@]32OO4 (stereo not given in full)	1.38 µM	> 40 µM	> 40 µM	12.3 µM	> 40 µM	14.9 µM	–	–	–	–	–	–	–	–	–
O=C(OCCCOc1ccc(-c2cc(=O)c3c(O)c(O)c(O)cc3o2)cc1)c1ccc(N(CCCl)CCCl)cc1	–	–	–	–	–	–	–	–	–	–	–	–	–	> 50 µM	–
C=C1C(=O)[C@]23[C@H](OC(=O)c4ccc(N(CCCl)CCCl)cc4)[C@H]1CC[C@H]2[C@@]12CO[C@@]3(O)[C@@H](O)[C@@H]1C(C)(C)CC[C@@H]2O	–	–	–	–	–	–	–	–	–	–	–	–	–	4.03 µM	0.5 µM
C[C@@H]1CC[C@@H]2[C@]34OO[C@](C)(CC[C@@H]13)O[C@H]4O[C@]2(C)COC(=O)CCCc1ccc(N(CCCl)CCCl)cc1	25.3 µM	> 40 µM	> 40 µM	> 40 µM	> 40 µM	> 40 µM	–	–	–	–	–	–	–	–	–
C[C@@H]1CC[C@H]2[C@@H](C)C(OC(=O)c3ccc(N(CCCl)CCCl)c(F)c3)O[C@@H]3O[C@@]4(C)CC[C@@H]1[C@]32OO4 (stereo not given in full)	24.7 µM	> 40 µM	> 40 µM	4.19 µM	> 40 µM	8.59 µM	–	–	–	–	–	–	–	–	–
C[C@@H]1CC[C@H]2[C@@H](C)C(OC(=O)Cc3ccc(N(CCCl)CCCl)cc3)O[C@@H]3O[C@@]4(C)CC[C@@H]1[C@]32OO4 (stereo not given in full)	1.57 µM	15.9 µM	> 40 µM	5.89 µM	> 40 µM	12.7 µM	15.5 µM	11.2 µM	–	–	–	–	–	–	–
C[C@@H]1CC[C@@H]2[C@]34OO[C@](C)(CC[C@@H]13)O[C@H]4O[C@]2(C)COC(=O)c1ccc(N(CCCl)CCCl)cc1	4.51 µM	> 40 µM	> 40 µM	7.96 µM	> 40 µM	5.24 µM	–	–	–	–	–	–	–	–	–

Source: ChEMBL document CHEMBL5247590, “Novel nitrogen mustard-artemisinin hybrids with potent anti-leukemia action through DNA damage and activation of GPx” (Eur J Med Chem, 2022)
